Laboratory results taken from patent publication US20220152117A1, “METHODS OF PROMOTING CELLULAR MATURATION WITH AMPK ACTIVATORS” (UNIVERSITY OF WASHINGTON, priority 2019, published 2022).
Several values for one entry are separate records, joined by “and”; a condition that tells them apart may be missing. Identical values can stand only once. Entries after “also recorded” stand apart in the source; their conditions may differ.

How the values were obtained:
hPSC-CMs [1] = assay: Mitochondrial oxidation of palmitate, Seahorse XF96 extracellular flux palmitate-albumin assay; assay type: cell-based, human; details: 1 mM AICAR for 2 weeks
Protocol: The Seahorse XF96 extracellular flux Analyzer™ was used to assess the fatty acid oxidation capacity of the hPSC-CMs. XF96 plates were pre-treated with fibronectin at a concentration of 1 μg/cm^2. At around 20 days after induction of differentiation, the cardiomyocytes were seeded onto the XF96 plates at a density of 30,000 cells per well (2,500/mm^2). The cells were treated with 1 mM AICAR for two weeks before the palmitate-albumin assay. An hour prior to performing this assay, culture medium was exchanged for basal media (unbuffered DMEM, Sigma D5030, supplemented with 2 mM glutamine, 1 mM pyruvate, 25 mM glucose, and 400 μM carnitine). Palmitate-albumin complexes were made following the Seahorse Bioscience protocol. Substrates were injected during the measurements to achieve two spike concentrations of palmitate-albumin at 200 μM each. The oxygen consumption rates (OCR values) were further normalized to the number of cells present in each well, quantified by staining with Hoechst 33342 (Sigma-Aldrich) as measured using fluorescence at 355 nm excitation and 460 nm emission. The highest OCR values induced by palmitate-albumin were used for statistics. Due to variations in the absolute magnitude of OCR measurements in different experiments, the relative AICAR treated/untreated control levels were used to compare and summarize independent biological replicates (N=7).

hPSC-CMs [2] = assay: Western blotting with phospho-specific antibodies (pACC, pAMPK, pAkt, pERK, p-p38-MAPK); assay type: cell-based, human
Protocol: Total protein was acquired from control cardiomyocytes or cardiomyocytes after two weeks of AICAR treatment and subjected to SDS-PAGE. The lanes were loaded with equal amount of protein and were checked by Ponceau S staining. After blocking with 5% milk, the membranes were incubated with anti-pACC ([…]) rabbit polyclonal antibody (Cell Signaling Technology), anti-pAMPK, anti-pAkt, anti-pERK, anti-p38-MAPK, or anti-GAPDH mouse monoclonal antibody (Abcam) overnight while shaking at 4° C. After incubation with anti-rabbit (for pACC) and anti-mouse (for GAPDH, pAMPK, pAkt, pERK, and p-p38-MAPK) horseradish peroxidase-coupled secondary antibody (Santa Cruz Biotechnology®), bands were visualized with SuperSignal West Femto Trial KitTM (Thermo Scientific®). The immunoblots band densities were analyzed in Image J.

[3] = tested on: neurons derived from an FAD patient cell line harboring a duplication of the APP gene; assay: Secreted amyloid beta peptides in neuronal culture media by ELISA; assay type: cell-based, human; details: three-week neuronal differentiation, at each week
Protocol: Undifferentiated human IMR90-induced pluripotent stem cells, originally derived from lung fibroblasts^22 (James A. Thomson, University of Wisconsin-Madison), were expanded using mouse embryonic fibroblast-conditioned medium supplemented with 5 ng/ml basic fibroblast growth factor. Cardiomyocytes were obtained using a previously described protocol^2 that involves the serial application of activin A and bone morphogenetic protein-4 (BMP4) under serum-free, monolayer culture conditions. The cultures were also supplemented with the Wnt agonist CHIR99021 in the early stages of differentiation followed by the Wnt antagonist Xav939. In this study, cardiomyocytes derived from human undifferentiated IMR90-induced stem cells were used, and for brevity, these are referred to human induced pluripotent stem cell-derived cardiomyocytes (hiPSC-CM). After 20 days of in vitro differentiation, the cells were dispersed using 0.05% trypsin-EDTA and re-plated. Cultures were fed every other day thereafter with serum-free RPMI-B27 plus insulin. Only cell preparations containing >80% cardiac troponin T-positive cardiomyocytes (by flow cytometry) were used for the current investigation. […]
Secreted Amyloid beta (Ab) peptides were measured from the neuronal culture media at one, two and three-week time points after AICAR treatment by ELISA assay (Meso Scale Discovery®).

hiPS-HLCs = assay: RT-PCR of hepatic and mitochondrial-related genes in hepatocyte-like cells; assay type: cell-based, human
Protocol: Undifferentiated human IMR90-induced pluripotent stem cells, originally derived from lung fibroblasts^22 (James A. Thomson, University of Wisconsin-Madison), were expanded using mouse embryonic fibroblast-conditioned medium supplemented with 5 ng/ml basic fibroblast growth factor. Cardiomyocytes were obtained using a previously described protocol^2 that involves the serial application of activin A and bone morphogenetic protein-4 (BMP4) under serum-free, monolayer culture conditions. The cultures were also supplemented with the Wnt agonist CHIR99021 in the early stages of differentiation followed by the Wnt antagonist Xav939. In this study, cardiomyocytes derived from human undifferentiated IMR90-induced stem cells were used, and for brevity, these are referred to human induced pluripotent stem cell-derived cardiomyocytes (hiPSC-CM). After 20 days of in vitro differentiation, the cells were dispersed using 0.05% trypsin-EDTA and re-plated. Cultures were fed every other day thereafter with serum-free RPMI-B27 plus insulin. Only cell preparations containing >80% cardiac troponin T-positive cardiomyocytes (by flow cytometry) were used for the current investigation. Twenty days after induction, cells were re-plated at different densities based on experimental purposes (described below). Cells were treated with 1 mM AICAR for two weeks (unless otherwise mentioned specifically), with media being changed every other day. This study was mainly performed with cardiomyocytes-derived from IMR90 iPS cell line. However, cardiomyocytes-derived from another iPS cell line, WTC11 iPS cells^22, and a human embryonic stem cell line (hESC), RUES2 cells, were also used for some of the experiments. Rues and WTC undifferentiated cells were cultured with mTeSR medium. Similar differentiation protocols as to IMR90 were used to obtain cardiomyocytes from Rues and WTC cells. Only cell preparations containing >80% cardiac troponin T-positive cardiomyocytes (by flow cytometry) were used for the current investigation. Undifferentiated iPSCs were maintained on StemAdhere™ (Primorigin Biosciences®) with mTesR medium supplemented with bFGF. The formation of hepatocyte-like cells from iPSCs was achieved as described previously^24,25. Briefly, cells were induced to form endoderm by addition of 100 ng/ml Activin A, 10 ng/ml BMP4, and 20 ng/ml FGF2 for two days followed by 100 ng/ml Activin A for an additional three days. Hepatic progenitor cells were formed by supplementing the medium with 20 ng/ml BMP4 and 10 ng/ml FGF2. Next, 20 ng/ml HGF was added between days 10 and 15 and induced maturation of the hepatocytes by culturing the cells in HCM medium (Lonza®) containing 20 ng/ml Oncostatin M until day 20. In some experiments, the differentiation medium was supplemented with 1.0 mM AICAR between days 15 and 20. hiPSC-derived neurons were generated following previously published protocols^26, 27, 28. Briefly, hiPSCs from a control individual^28 and from a patient with the duplication of the amyloid precursor protein (APP) gene^27 were cultured on mouse embryonic fibroblasts in the presence of 20 ng/ml bFGF (Peprotech®). Neural stem cells were generated by hiPSC co-culture on the mouse stromal cell line PA6 in the presence of 0.5 ug/ml Noggin (Peprotech®) and 10 uM SB431542 (Peprotech®). After 12 days, neural rosettes were dissociated and FACS sorted for the cell surface markers CD184/CD24^+; CD44/CD271^−. Neural stem cells were propagated in 20 ng/ml bFGF and neuronal differentiation was induced by the withdrawal of bFGF and the addition of 20 ng/ml BDNF (Peprotech®), 20 ng/ml GDNF (Peprotech®), […] dbCAMP (Peprotech®).
Total RNA was isolated using the Qiagen RNeasy Kit™, and mRNA was reverse transcribed using the Superscript™ III first strand cDNA synthesis kit (Invitrogen®). All primers were purchased from Real Time Primers, and qRT-PCR was performed using SYBR™ green chemistry and an ABI 7900HT instrument or TAQMAN™ with BIORad CXF384™. […]

L6 myotube = details: literature study (ref 44); cited from earlier work
[4] = HLCs treated at day 20 with 1 mM AICAR for additional seven days

Q: Which “increase in oxygen consumption rate (OCR) upon palmitate-albumin introduction” value (hPSC-CMs [1]) does the source give for `NC(=O)c1ncn([C@@H]2O[C@H](CO)[C@@H](O)[C@H]2O)c1N` [AICAR, 5-amino-4-imidazolecarboxamide riboside-1-β-D-ribofuranoside] here?
A: The value was 2.32±0.12 fold and ~2.3 fold.

Q: What about the phopho-p38-MAPK (hPSC-CMs [2]; 1 mM AICAR, time course) of the same compound?
A: Its phopho-p38-MAPK is “Transient increases”.

Q: What about the phospho-ERK (hPSC-CMs [2]; 1 mM AICAR, time course) of the same compound?
A: The phospho-ERK was “Transient increases”.

Q: What about the phospho-Thr172-AMPK phosphorylation (hPSC-CMs [2]; 1 mM AICAR, time course) of the same compound?
A: Its phospho-Thr172-AMPK phosphorylation is “rapid robust transient”.

Q: What about the “phosphorylation of Akt at Ser473” value (hPSC-CMs [2]; 1 mM AICAR, time course) of the same compound?
A: The value was “increased”.

Q: And the “phosphorylation of Ser79-ACC” value (hPSC-CMs [2]; 1 mM AICAR, time course)?
A: Its value is “rapid, time-dependent increase”.

Q: What about the “phospho-ACC (Ser 79) level by immunoblot vs control cells” value (hPSC-CMs [2]; two weeks of AICAR treatment, same exposure conditions) of the same compound?
A: Its value is “more than one thousand-fold increase”.

Q: What about the “levels of secreted Ab1-40 peptides” value [3] of the same compound?
A: The value was “significantly reduced”.

Q: And the “levels of secreted Ab1-42 peptides” value [3]?
A: Its value is “significantly reduced”.

Q: What about the “HNF4α expression, treatment day 15 to 17” value (hiPS-HLCs; 1 mM AICAR day 15 to 17) of the same compound?
A: The value was “significantly down-regulated”.

Q: And the “other mature hepatic-related genes (SLC10A1, APOH, ASGR, APOB, and PXR)” value (hiPS-HLCs; 1 mM AICAR day 15 to 17)?
A: The value was “no significant difference”.

Q: What about the “AFP expression, treatment day 15 to 17” value (hiPS-HLCs; 1 mM AICAR day 15 to 17, endpoint day 20) of the same compound?
A: The value was “diminished; also recorded: significantly reduced”.

Q: And the “ALB expression, treatment day 15 to 17” value (hiPS-HLCs; 1 mM AICAR day 15 to 17, endpoint day 20, b310 calls the change non-significant)?
A: Its value is “enhanced”.

Q: And the “ALB expression, longer treatment” value (hiPS-HLCs; 1 mM AICAR, longer treatment between days 15 and 20, endpoint day 20)?
A: The value was “adversely affected”.

Q: And the “PDK4 expression in HLCs” value (hiPS-HLCs; [4])?
A: The value was “significantly increased”.

Q: And the “PGC1α, ERRa, PPARα, TFAM and HNF4α expression in HLCs” value (hiPS-HLCs; [4])?
A: Its value is “no significant effect”.

Q: And the “ERK phosphorylation in L6 myotube” value (L6 myotube)?
A: Its value is “leads to ERK phosphorylation”.
